Experimental data from patent US12029730B2, “Pharmaceutical composition for preventing or treating cancer, containing N-1H-benzimidazol-2-yl-3-(1H-pyrrole-1-yl)benzamide as active ingredient” (KOREA INSTITUTE OF RADIOLOGICAL & MEDICAL SCIENCES, priority 2018, dated 2024).

Legend:
MCF7 cells [1] = assay: WST-8 cell viability assay, breast cancer cell line MCF7; format: cell-based, human; conditions: for cell viability, MCF7: 3.70, 11.11, 33.33 and 100 μM
Protocol: (§1) In addition, the cell line in this experiment was distributed from ATCC (American Type Culture Collection; Manassas, VA). Human-derived tumor cell lines, breast cancer cell lines MCF7 and T47D was cultured in DMEM medium containing 10% fetal bovine serum (FBS; HyClone, South Logan, UT) and 1% penicillin/streptomycin (Corning, NY, USA) at 37° C. and 5% CO2, and the BT549 breast cancer cell line was cultured in RPMI 1640 (Welgene, Daegu, Korea) as a medium used under the same conditions. Human-derived normal cell line MCF10A was cultured in DMEM/F12 (Invitrogen) medium containing 5% horse serum (Invitrogen), 1% penicillin/streptomycin, 20 ng/ml EGF (Peprotech, London, UK), […] (Sigma-Aldrich, MO, USA), 100 ng/ml cholera toxin (Cholera Toxin, Sigma-Aldrich) and 10 μg Insulin (Sigma-Aldrich) at 37° C. and 5% CO2.
(§2) Briefly, MCF7 and MCF10A cells were seeded into 96-well plates, incubated for 24 hours, and then was treated with 42 inhibitor candidates. Among the compounds, the multi-AGC kinase inhibitor AT13148 was used as a positive control. Thereafter, the absorbance was measured at 450 nm using a Versamax microplate reader (Molecular Devices, CA, USA), and the results of the experiment were shown in FIG. 1A.
(§3) In order to confirm whether the selected MKI-1 can kill only cancer cells, an experiment was performed by treating with MKI-1 and measuring whether the cell viability of breast cancer cell lines and normal cell lines was changed. WST-8 analysis (Cyto X™ cell viability assay kit, LPS solution, Daejeon, Korea) was performed according to the manufacturer's protocol. Cancer cells MCF7 and BT549 and normal cell line MCF10A cells were inoculated into a 96-well plate, cultured for 24 hours, and then treated with MASTL kinase inhibitors at various concentrations (3.70, 11.11, 33.33 and 100 μM). Thereafter, the absorbance was measured at 450 nm using a Versamax micro plate reader (Molecular Devices, CA, USA), and the results were shown in FIG. 6.

MCF10A cells = assay: WST-8 cell viability assay, normal cell line MCF10A; format: cell-based, human; conditions: for cell viability, normal cell line MCF10A: 3.70, 11.11, 33.33 and 100 μM, FIG. 6
Protocol: as §1, §2, §3

BT549 cells = assay: WST-8 cell viability assay, breast cancer cell line BT549; format: cell-based, human; conditions: FIG. 6; for cell viability, BT549: 3.70, 11.11, 33.33 and 100 μM
Protocol: as §1, §3

MASTL kinase = biological target: T1, MASTL kinase (Homo sapiens, UniProt Q96GX5); assay: ADP-Glo luminescence-kinase assay; format: biochemical; conditions: 10 μM ATP, FIG. 2
T1 construct: GST; purchased Thermo Fisher Scientific
T1 sequence (Q96GX5 1-879): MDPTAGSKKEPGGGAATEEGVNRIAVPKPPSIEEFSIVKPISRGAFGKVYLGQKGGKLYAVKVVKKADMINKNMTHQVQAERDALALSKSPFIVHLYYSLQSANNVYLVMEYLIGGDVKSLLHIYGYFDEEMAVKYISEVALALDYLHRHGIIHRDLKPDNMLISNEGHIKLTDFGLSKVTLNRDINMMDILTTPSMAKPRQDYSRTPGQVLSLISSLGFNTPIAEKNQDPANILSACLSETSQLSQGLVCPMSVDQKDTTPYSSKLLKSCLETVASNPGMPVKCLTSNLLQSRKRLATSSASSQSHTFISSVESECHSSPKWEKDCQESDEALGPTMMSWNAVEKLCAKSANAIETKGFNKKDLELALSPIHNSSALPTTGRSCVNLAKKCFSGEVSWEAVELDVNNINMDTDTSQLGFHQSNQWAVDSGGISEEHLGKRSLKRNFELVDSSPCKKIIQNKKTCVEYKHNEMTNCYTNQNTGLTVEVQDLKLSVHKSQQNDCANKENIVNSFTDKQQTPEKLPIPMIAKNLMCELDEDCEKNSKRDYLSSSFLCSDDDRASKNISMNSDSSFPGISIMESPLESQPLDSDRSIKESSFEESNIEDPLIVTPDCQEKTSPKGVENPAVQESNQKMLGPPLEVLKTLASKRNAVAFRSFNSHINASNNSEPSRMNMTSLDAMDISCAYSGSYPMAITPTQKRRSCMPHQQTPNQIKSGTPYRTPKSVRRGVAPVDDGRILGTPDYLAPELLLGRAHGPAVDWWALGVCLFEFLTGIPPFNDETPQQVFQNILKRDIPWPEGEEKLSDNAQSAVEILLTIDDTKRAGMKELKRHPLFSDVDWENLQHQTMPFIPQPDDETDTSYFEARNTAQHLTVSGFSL
Protocol: A protein kinase analysis was performed using the ADP-Glo™ kinase assay kit according to the standard protocol provided by Promega. […] A solution of a serial 2-fold dilution of the MASTL kinase inhibitor (GKI-1, MKI-1 or AT13148) was prepared and MASTL kinase […], ENSA 250 ng and 10 μM ATP was mixed in a kinase reaction buffer consisting of 100 mM Tris-HCl (pH 7.5), 30 mM MgCl2, 2 mM DTT, 1 mM EDTA and 10 μM ultra-pure ATP (Promega). Thereafter, the mixture was reacted at 30° C. for 30 minutes in an E-tube, and a kinase detection reagent was added thereto, followed by reacting for 30 minutes to detect the converted ATP. Then, the reacted product was transferred to a 384-well white plate, and […] was read using a SpectraMax i3× Multi-Mode Microplate Reader (Molecular Devices), and GKI-1, N-(4-chlorophenyl)-3-(1H-pyrazol-4-yl)aniline and AT13148 were used as positive controls. The effect of inhibiting kinase activity of GKI-1 and MKI-1 and its IC50 confirmed through the reading result were shown in FIG. 2. In addition, enzyme activity assay was performed under the same conditions except for the treatment of each concentration of MKI-1 (0, 6.25, 12.5, 25, 50 and 100 μM) through western blot, and it was shown in FIG. 3.

MCF7 cells [2] = assay: Colony formation analysis; format: cell-based, human; conditions: MCF7, cultured 15 days, compared to DMSO, FIG. 7
Protocol: Colony formation analysis was performed to confirm whether the selected MKI-1 can effectively kill cancer cells. First, breast cancer cells MCF7 (500-1000 cells) were cultured in a 60 mm culture plate, and after 24 hours, it was treated with MASTL kinase inhibitors (AT13148, MKI-1 and GKI-1), respectively and cultured for 15 days. Cells were fixed and stained with […] to which methanol was added to quantify the number of colonies, which was shown in FIG. 7.

[3] = screen of 42 single compounds, FIG. 1A

Clc1ccc(Nc2cccc(-c3cn[nH]c3)c2)cc1 [GKI-1, N-(4-chlorophenyl)-3-(1H-pyrazol-4-yl)aniline, reference compound]
cell viability, MCF7 (MCF7 cells [1]; FIG. 6): decreases cell viability in a dose-dependent manner | cell viability, normal cell line MCF10A (MCF10A cells): hardly decrease cell viability | cell viability, BT549 (BT549 cells): decreases cell viability in a dose-dependent manner | IC50 (MASTL kinase): 12 µM | number of cancer cell colonies (MCF7 cells [2]): hardly decreased

O=C(Nc1nc2ccccc2[nH]1)c1cccc(-n2cccc2)c1 [MKI-1, N-1H-benzimidazol-2-yl-3-(1H-pyrrol-1-yl) benzamide]
survival rate of cancer cells, MCF7 (MCF7 cells [1]; 33.33 μM or more, FIG. 6): significantly reduced | cell viability, MCF7 (MCF7 cells [1]; FIG. 6): decreases cell viability in a dose-dependent manner | growth of the treated cancer cell line (MCF7) (MCF7 cells [1]; [3]): significantly inhibited | cell viability, normal cell line MCF10A (MCF10A cells): hardly decrease cell viability | cell viability of normal cell line (MCF10A) (MCF10A cells; [3]): maintained as high as that of the control group DMSO | survival rate of cancer cells, BT549 (BT549 cells; 33.33 μM or more): significantly reduced | cell viability, BT549 (BT549 cells): decreases cell viability in a dose-dependent manner | IC50 (MASTL kinase): 11.6 µM | number of cancer cell colonies (MCF7 cells [2]): significantly reduced
